From patent publication US8906925B2, “Pyrido[4,3-B]indoles containing rigid moieties” (Medivation Technologies, Inc., priority 2008, dated 2014)
Where two headings read alike, the source gives them in different places.

Key:
histamine receptor H1 = histamine receptor H1 (Homo sapiens, UniProt P35367); assay: Histamine H1 radioligand binding ([3H]Pyrilamine); conditions: read-out: Histamine Binding (1 μM) H1, percent inhibition of specific binding, 1 μM
Procedure: To evaluate in radioligand binding assays the activity of compounds of the invention, human recombinant histamine H1 receptor expressed in Chinese hamster ovary (CHO) cells (De Backer, M. D. et al., Biochem. Biophys. Res. Comm. 197(3):1601, 1993) in a modified Tris-HCl buffer (50 mM Tris-HCl, pH 7.4, 2 mM MgCl2, 100 mM NaCl, 250 mM Sucrose) was used. Compounds of the invention were incubated with 1.2 nM [^3H]Pyrilamine for 180 min. at 25° C. Non-specific binding was estimated in the presence of 1 μM pyrilamine. Receptor proteins were filtered and washed, the filters were then counted to determine [^3H]Pyrilamine specifically bound. Compounds were screened at 1 μM or lower, using 1% DMSO as vehicle. Biochemical assay results are presented as the percent inhibition of specific binding in Table 8.

[1] = biological target: human dopamine D2L receptor (Homo sapiens, UniProt P14416); assay: Dopamine D2L radioligand binding ([3H]Spiperone); conditions: compound at 1 μM
human dopamine D2L receptor, sequence (P14416 whole entry): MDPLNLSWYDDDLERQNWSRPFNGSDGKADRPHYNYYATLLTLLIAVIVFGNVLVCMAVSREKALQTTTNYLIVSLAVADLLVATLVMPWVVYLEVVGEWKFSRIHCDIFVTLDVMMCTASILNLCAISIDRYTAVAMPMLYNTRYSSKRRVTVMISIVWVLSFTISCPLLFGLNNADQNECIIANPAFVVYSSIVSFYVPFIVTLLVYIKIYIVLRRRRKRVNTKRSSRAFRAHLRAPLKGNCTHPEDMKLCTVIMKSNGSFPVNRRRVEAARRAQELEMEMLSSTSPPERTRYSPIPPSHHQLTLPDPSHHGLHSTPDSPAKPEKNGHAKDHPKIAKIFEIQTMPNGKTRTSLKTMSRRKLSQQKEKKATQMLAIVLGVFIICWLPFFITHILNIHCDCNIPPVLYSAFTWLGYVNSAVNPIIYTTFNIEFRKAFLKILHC
Text: Non-specific binding was estimated in the presence of […] Haloperidol. Receptor proteins were filtered and washed, the filters were then counted to determine [^3H]Spiperone specifically bound. […] Biochemical assay results are presented as the percent inhibition of specific binding in Table 9.

[2] = percent inhibition of specific binding, read-out: Inhibition of ligand binding, Dopamine D2L

histamine receptor H1, sequence (P35367 whole entry): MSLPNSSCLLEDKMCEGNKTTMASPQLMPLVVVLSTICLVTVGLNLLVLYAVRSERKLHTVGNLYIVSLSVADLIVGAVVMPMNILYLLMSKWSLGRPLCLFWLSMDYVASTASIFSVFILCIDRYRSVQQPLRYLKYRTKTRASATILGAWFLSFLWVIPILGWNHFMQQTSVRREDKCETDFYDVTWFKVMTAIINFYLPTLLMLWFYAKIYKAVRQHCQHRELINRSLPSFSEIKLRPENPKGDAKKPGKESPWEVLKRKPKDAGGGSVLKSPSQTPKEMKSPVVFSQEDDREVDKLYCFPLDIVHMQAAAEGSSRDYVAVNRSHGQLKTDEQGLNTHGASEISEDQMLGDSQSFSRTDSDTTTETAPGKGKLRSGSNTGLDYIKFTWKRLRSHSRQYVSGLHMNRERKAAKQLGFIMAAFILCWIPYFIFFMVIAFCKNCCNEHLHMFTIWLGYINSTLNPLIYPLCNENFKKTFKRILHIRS

Row | SMILES | inhibition at 1 µM (histamine receptor H1) [%] | inhibition at 1 µM [1, 2] [%] | inhibition at 1 µM ([1]; […] [3H]Spiperone, read-out: Inhibition of ligand binding, Dopamine D2L (percent inhibition of specific binding)) [%]
1 | CC/C(=C\n1c2c(c3cc(C)ccc31)CN(C)CC2)c1ccncc1 [Compound 283, (E)-2,8-dimethyl-5-(2-(pyridin-4-yl)but-1-enyl)-2,3,4,5-tetrahydro-1H-pyrido[4,3-b]indole] | 23 | 66 | 
2 | CC/C(=C\n1c2c(c3cc(Cl)ccc31)CN(C)CC2)c1ccncc1 [Compound 284, (E)-8-chloro-2-methyl-5-(2-(pyridin-4-yl)but-1-enyl)-2,3,4,5-tetrahydro-1H-pyrido[4,3-b]indole] | 40 | 84 | 
3 | C/C(=C\n1c2c(c3cc(C)ccc31)C(C)N(C)C(C)C2)c1ccncc1 (stereo not shown) [Compound 285, (E)-1,2,3,8-tetramethyl-5-(2-(pyridin-4-yl)prop-1-enyl)-2,3,4,5-tetrahydro-1H-pyrido[4,3-b]indole] | 21 | 53 | 
4 | C/C(=C\n1c2c(c3cc(C)ccc31)CN(C)CC2)c1cnccn1 [Compound 287, (E)-2,8-dimethyl-5-(2-(pyrazin-2-yl)prop-1-enyl)-2,3,4,5-tetrahydro-1H-pyrido[4,3-b]indole] | 33 | 72 | 
5 | C/C(=C\n1c2c(c3cc(C)ccc31)CN(CCCO)CC2)c1ccncc1 [Compound 288, (E)-3-(8-methyl-5-(2-(pyridin-4-yl)prop-1-enyl)-3,4-dihydro-1H-pyrido[4,3-b]indol-2(5H)-yl)propan-1-ol] | 25 | 92 | 
6 | C/C(=C\n1c2c(c3cc(Cl)ccc31)CN(C)CC2)c1ccncn1 [Compound 289, (E)-8-chloro-2-methyl-5-(2-(pyrimidin-4-yl)prop-1-enyl)-2,3,4,5-tetrahydro-1H-pyrido[4,3-b]indole] | 34 | 90 | 
7 | C/C(=C\n1c2c(c3cc(C)ccc31)CN(CC(F)(F)F)CC2)c1ccncc1 [Compound 291, (E)-8-methyl-5-(2-(pyridin-4-yl)prop-1-enyl)-2-(2,2,2-trifluoroethyl)-2,3,4,5-tetrahydro-1H-pyrido[4,3-b]indole] | -4 | 0 | 
8 | C/C(=C\n1c2c(c3cc(C)ccc31)CN(C1CC1)CC2)c1ccncc1 [Compound 292, (E)-2-cyclopropyl-8-methyl-5-(2-(pyridin-4-v)prop-1-enyl)-2,3,4,5-tetrahydro-H-pyrido[4,3-b]indole] | 11 | 71 | 
9 | C/C(=C\n1c2c(c3cc(C)ccc31)CN(C)CC2)c1cncnc1 [Compound 293, (E)-2,8-dimethyl-5-(2-(pyrimidin-5-yl)prop-1-enyl)-2,3,4,5-tetrahydro-1H-pyrido[4,3-b]indole] | 9 | 31 | 
10 | C/C(=C\n1c2c(c3cc(C)ccc31)CN(C)CC2)c1cccs1 [Compound 294, (E)-2,8-dimethyl-5-(2-(thiophen-2-yl)prop-1-enyl)-2,3,4,5-tetrahydro-1H-pyrido[4,3-b]indole] | 83 | 83 | 
11 | C/C(=C\n1c2c(c3cc(C)ccc31)CN(C)CC2)C1CCCCC1 [Compound 320, (E)-5-(2-cyclohexylprop-1-enyl)-2,8-dimethyl-2,3,4,5-tetrahydro-1H-pyrido[4,3-b]indole] | 65 | 61 | 
12 | C/C(=C\n1c2c(c3cc(C)ccc31)CN(CCO)CC2)c1ccncc1 [Compound 332, (E)-2-(8-methyl-5-(2-(pyridin-4-yl)prop-1-enyl)-3,4-dihydro-1H-pyrido[4,3-b]indol-2(5H)-yl)ethanol] | 23 | 79 | 
13 | C/C(=C\n1c2c(c3cc(C)ccc31)CN(C)CC2)c1cc(Cl)cc(Cl)c1 [compound 410, (E)-5-(2-(3,5-dichlorophenyl)prop-1-enyl)-2,8-dimethyl-2,3,4,5-tetrahydro-1H-pyrido[4,3-b]indole] |  |  | 47
